Laboratory results published in ChEMBL document CHEMBL4130372, “The antitrypanosomal and antitubercular activity of some nitro(triazole/imidazole)-based aromatic amines” (Eur J Med Chem, 2017).
Values after ≈ are worked out from the molar mass of the structure shown. Active and inactive are the calls of the source. No cut-off for these calls is given here.

Assays:
[1] = system: Trypanosoma brucei rhodesiense; test: Antitrypanosomal activity against blood stream form of Trypanosoma brucei rhodesiense STIB900 trypomastigotes after 72 hrs by Alamar Blue assay; type: functional, organism-based; conditions: STIB900, 72 h
Trypanosoma cruzi [2] = test: Potency index, ratio of benznidazole IC50 to compound IC50 for Trypanosoma cruzi Tulahuen C4; type: functional
[3] = Selectivity index, ratio of IC50 for rat L6 cells to IC50 for blood stream form of Trypanosoma brucei rhodesiense STIB900; type: toxicity; conditions: read-out: Ratio IC50
Trypanosoma cruzi [4] = test: Antitrypanosomal activity against Trypanosoma cruzi Tulahuen C4 amastigotes infected in rat L6 cells after 96 hrs by CPRG/nonidet-based inverted microscopic analysis; type: functional, organism-based; conditions: Tulahuen C4, L6, 96 h
[5] = Selectivity index, ratio of IC50 for rat L6 cells to IC50 for […] amastigotes infected in rat L6 cells; type: toxicity, cell-based; conditions: read-out: Ratio IC50
L6 = test: Cytotoxicity against rat L6 cells assessed as reduction in cell viability after 2 days by cell-titer-glo luminescent assay; type: cell-based; conditions: L6, 48 h
[6] = system: Mycobacterium tuberculosis; test: Antitubercular activity against Mycobacterium tuberculosis H37Rv ATCC 27294 after 5 days measured under aerobic conditions by fluorescence-based assay; type: functional, organism-based; conditions: H37Rv ATCC 27294, 120 h
[7] = system: Mycobacterium tuberculosis; test: Antitubercular activity against Mycobacterium tuberculosis H37Rv ATCC 27294 expressing luxABCDE operon incubated for 10 days under hypoxic conditions followed by incubation under aerobic conditions for 28 hrs by LORA method; type: functional, organism-based
[8] = system: Mycobacterium tuberculosis; test: Bactericidal activity against Mycobacterium tuberculosis H37Rv ATCC 27294 assessed as minimum concentration required to achieve a 2-log kill measured after 21 days under hypoxic conditions; type: functional; conditions: H37Rv ATCC 27294, 504 h
[9] = Cytotoxicity against African green monkey Vero cells assessed as reduction in cell viability after 2 days by cell-titer-glo luminescent assay; type: cell-based; conditions: chlorocebus sabaeus, read-out: TC50
[10] = system: Mycobacterium tuberculosis; test: Antitubercular activity against Mycobacterium tuberculosis H37Rv ATCC 27294 expressing luxABCDE operon at 100 uM incubated for 10 days under hypoxic conditions followed by incubation under aerobic conditions for 28 hrs by LORA method; type: functional
[11] = system: Mycobacterium tuberculosis; test: Antitubercular activity against Mycobacterium tuberculosis INH-R2 ATCC 35822 after 5 days by fluorescence-based assay; type: functional; conditions: INH-R2 ATCC 35822, 120 h
[12] = system: Mycobacterium tuberculosis; test: Antitubercular activity against Mycobacterium tuberculosis RIF-R2 ATCC 35828 after 5 days by fluorescence-based assay; type: functional; conditions: RIF-R2 ATCC 35828, 120 h
[13] = system: Mycobacterium tuberculosis; test: Antitubercular activity against Mycobacterium tuberculosis H37Rv ATCC 27294 expressing […] infected in mouse J774 cells assessed as log reduction in intracellular bacterial burden at 30 uM after 4 days by luminescence assay; type: functional
[14] = system: Mycobacterium tuberculosis; test: Antitubercular activity against Mycobacterium tuberculosis H37Rv ATCC 27294 expressing […] infected in mouse J774 cells assessed as log reduction in intracellular bacterial burden at 0.6 uM after 4 days by luminescence assay; type: functional
[15] = system: Mycobacterium tuberculosis; test: Antitubercular activity against Mycobacterium tuberculosis H37Rv ATCC 27294 expressing […] infected in mouse J774 cells assessed as log reduction in intracellular bacterial burden at 200 uM after 4 days by luminescence assay; type: functional
[16] = system: Mycobacterium tuberculosis; test: Bactericidal activity against Mycobacterium tuberculosis H37Rv ATCC 27294 assessed as minimum concentration required to achieve a 2-log kill measured after 21 days; type: functional
[17] = system: Mycobacterium tuberculosis; test: Antitubercular activity against Mycobacterium tuberculosis H37Rv ATCC 27294 expressing […] infected in mouse J774 cells assessed as log reduction in intracellular bacterial burden at 20 uM after 4 days by luminescence assay; type: functional
[18] = Selectivity index, ratio of TC50 for African green monkey Vero cells to MIC for Mycobacterium tuberculosis H37Rv ATCC 27294 expressing luxABCDE operon; type: toxicity; conditions: read-out: Selectivity Index

Structure (SMILES) | IC50 [1] [µM] | Ratio IC50 (Trypanosoma cruzi [2]) | selectivity ratio [3] | IC50 (Trypanosoma cruzi [4]) [µM] | selectivity ratio [5] | IC50 (L6) [µM] | IC50 [6] [µM] | IC90 [6] [µM] | MIC [6] [µM] | MIC [7] [µM] | other results
Cl.O=[N+]([O-])c1ncn(CCCNc2ccnc3cc(Cl)ccc23)n1 | 0.309 | 2.2 |  |  |  |  |  |  |  |  | 
Clc1cccc2c(NCCCCn3cncn3)ccnc12 | 13.5 | 0.05 | 2.8 | 48.6 | 0.8 | 37.7 |  |  |  |  | 
O=[N+]([O-])c1nccn1CCCNc1ncnc2ccccc12 | 13.2 | 1.11 | 2.9 | 1.83 | 21 | 38.6 |  |  |  |  | 
Cc1ncc([N+](=O)[O-])n1CCO [METRONIDAZOLE] |  |  |  |  |  |  | > 200 | > 200 | > 200 | 200 (≈ 34.2 µg/mL) | IC50 [7]: 36 µM; IC90 [7]: 82 µM
Cl.O=[N+]([O-])c1nccn1CCCNc1ccnc2cc(Cl)ccc12 | 1.4 | 2.15 | 18 |  | 24 |  |  |  | > 128 |  | MBC [8]: 8.4 to 50 µM; CC50 at 48 h [9]: 399 µM
O=[N+]([O-])c1cn2c(n1)OC[C@@H](OCc1ccc(OC(F)(F)F)cc1)C2 [PRETOMANID] |  |  |  |  |  |  |  |  |  |  | MBC [8]: 17.8 to 35.7 µM (≈ 6.39 to 12.8 µg/mL)
Cl.O=[N+]([O-])c1ncn(CCCCNc2ccnc3cc(Cl)ccc23)n1 | 0.193 | 9.6 | 710 |  | 979 |  |  |  |  |  | 
O=[N+]([O-])c1ncn(CCCCNc2ccnc3c(Cl)cccc23)n1 | 0.038 | 3.9 | 1940 | 0.574 | 128 | 73.6 | > 200 | > 200 | > 200 | > 100 | Activity [10]: 82%
CO[C@H]1/C=C/O[C@@]2(C)Oc3c(C)c(O)c4c(O)c(c(/C=N/N5CCN(C)CC5)c(O)c4c3C2=O)NC(=O)/C(C)=C\C=C\[C@H](C)[C@H](O)[C@@H](C)[C@@H](O)[C@@H](C)[C@H](OC(C)=O)[C@@H]1C [RIFAMPIN] |  |  |  |  |  |  | 0.0046 | 0.0049 | 0.015 (≈ 0.0123 µg/mL) | 0.022 (≈ 0.0181 µg/mL) | IC50 [7]: 0.00072 µM; IC90 [7]: 0.0037 µM; MIC [11]: 0.011 µM (≈ 0.00905 µg/mL); MIC [12]: > 50 µM
Cl.O=[N+]([O-])c1nccn1CCCCNc1ccnc2cc(Cl)ccc12 | 1.87 | 0.64 | 36 |  | 19 |  |  |  | > 128 |  | MBC [8]: 12.8 to 25.7 µM; CC50 at 48 h [9]: > 1680 µM
O=[N+]([O-])c1nccn1CCCNc1ccnc2c(Cl)cccc12 | 1.29 | 2.02 | 83 | 1.11 | 97 | 107 | > 200 | > 200 | > 200 | 2.89 (≈ 0.959 µg/mL) | 
NNC(=O)c1ccncc1 [ISONIAZID] |  |  |  |  |  |  |  |  |  |  | log(activity) [13]: 2.6; log(activity) [14]: 2.7; MIC [11]: > 200 µM; MIC [12]: 0.67 µM (≈ 0.0919 µg/mL)
O=[N+]([O-])c1nccn1CCCCNc1ncnc2ccccc12 | 2.58 | 0.96 | 3.5 | 2.32 | 3.9 | 8.96 | > 200 | > 200 | > 200 | 9.18 (≈ 2.87 µg/mL) | 
C[C@H]1COc2c(N3CCN(C)CC3)c(F)cc3c(=O)c(C(=O)O)cn1c23.C[C@H]1COc2c(N3CCN(C)CC3)c(F)cc3c(=O)c(C(=O)O)cn1c23.O [LEVOFLOXACIN] |  |  |  |  |  |  |  |  |  |  | MIC [11]: 1.3 µM; MIC [12]: 1.4 µM
O=C(Cn1ccnc1[N+](=O)[O-])NCc1ccccc1 [BENZNIDAZOLE] |  |  |  | 2.24 |  |  |  |  |  |  | 
O=[N+]([O-])c1ncn(CCCCNc2ncnc3ccccc23)n1 | 0.39 | 2.57 | 88 | 0.872 | 39 | 34.4 | 51 | 140 | 200 (≈ 62.7 µg/mL) | > 100 | IC50 [7]: 11 µM; IC90 [7]: > 100 µM; Activity [10]: 76%; log(activity) [15]: 0.7; CC50 at 48 h [9]: > 100 µM; MBC ([16]; H37Rv ATCC 27294, 504 h): 100 µM (≈ 31.3 µg/mL); MIC [11]: > 200 µM; MIC [12]: > 200 µM
O=[N+]([O-])c1nccn1CCCCNc1ccnc2c(Cl)cccc12 | 1.27 | 1.1 | 29 | 2.04 | 18 | 36.2 | 41 | > 200 | > 200 | 4.14 (≈ 1.43 µg/mL) | IC50 [7]: 0.15 µM; IC90 [7]: 0.84 µM; log(activity) [17]: 1.5; CC50 at 48 h [9]: 66 µM; MBC [16]: inactive; MIC [11]: > 200 µM; MIC [12]: > 200 µM; selectivity ratio [18]: 16
